Source: patent US8471005B2 (Cephalon, Inc., priority 2008, dated 2013)
Like-named read-outs stand apart in the source and are kept apart here.

What was measured:
JAK2 = target: T1, JAK2 (Homo sapiens, UniProt O60674); experiment: Recombinant Human JAK2 Kinase Assay (TRF); assay type: biochemical; settings: read-out: JAK2 Potency
T1 construct: host or cells: baculovirus expression system
Outline: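 Baculovirus-expressed JAK2 (15 ng/ml) phosphorylated a biotinylated 15-mer peptide captured on Neutravidin, in 20 mM HEPES pH 7.2, 0.2 μM ATP, 1 mM MnCl2, 0.1% BSA, 2.5% DMSO final, 20 min at room temperature. Phosphoproduct detected by time-resolved fluorescence with Eu-N1-labelled PY100 antibody.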

ALK = target: T2, ALK (Homo sapiens, UniProt Q9UM73); experiment: ALK Kinase Assay (ELISA/TRF, PLC-γ substrate); assay type: biochemical; settings: read-out: ALK Potency
T2 construct: host or cells: baculovirus expression system
Outline: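 PLC-γ substrate coated at 10 μg/mL in TBS; reaction started with 30 ng/ml ALK, run 15 min at 37° C. Phosphoproduct detected by TRF with Eu-N1-labeled PT66 anti-phosphotyrosine antibody. IC50 from sigmoidal variable-slope fit of percent inhibition versus log concentration.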

[1] = JAK2 kinase inhibition, 0.2 μM ATP
[2] = ALK kinase inhibition, 1 μM ATP

T1 sequence (O60674 whole entry): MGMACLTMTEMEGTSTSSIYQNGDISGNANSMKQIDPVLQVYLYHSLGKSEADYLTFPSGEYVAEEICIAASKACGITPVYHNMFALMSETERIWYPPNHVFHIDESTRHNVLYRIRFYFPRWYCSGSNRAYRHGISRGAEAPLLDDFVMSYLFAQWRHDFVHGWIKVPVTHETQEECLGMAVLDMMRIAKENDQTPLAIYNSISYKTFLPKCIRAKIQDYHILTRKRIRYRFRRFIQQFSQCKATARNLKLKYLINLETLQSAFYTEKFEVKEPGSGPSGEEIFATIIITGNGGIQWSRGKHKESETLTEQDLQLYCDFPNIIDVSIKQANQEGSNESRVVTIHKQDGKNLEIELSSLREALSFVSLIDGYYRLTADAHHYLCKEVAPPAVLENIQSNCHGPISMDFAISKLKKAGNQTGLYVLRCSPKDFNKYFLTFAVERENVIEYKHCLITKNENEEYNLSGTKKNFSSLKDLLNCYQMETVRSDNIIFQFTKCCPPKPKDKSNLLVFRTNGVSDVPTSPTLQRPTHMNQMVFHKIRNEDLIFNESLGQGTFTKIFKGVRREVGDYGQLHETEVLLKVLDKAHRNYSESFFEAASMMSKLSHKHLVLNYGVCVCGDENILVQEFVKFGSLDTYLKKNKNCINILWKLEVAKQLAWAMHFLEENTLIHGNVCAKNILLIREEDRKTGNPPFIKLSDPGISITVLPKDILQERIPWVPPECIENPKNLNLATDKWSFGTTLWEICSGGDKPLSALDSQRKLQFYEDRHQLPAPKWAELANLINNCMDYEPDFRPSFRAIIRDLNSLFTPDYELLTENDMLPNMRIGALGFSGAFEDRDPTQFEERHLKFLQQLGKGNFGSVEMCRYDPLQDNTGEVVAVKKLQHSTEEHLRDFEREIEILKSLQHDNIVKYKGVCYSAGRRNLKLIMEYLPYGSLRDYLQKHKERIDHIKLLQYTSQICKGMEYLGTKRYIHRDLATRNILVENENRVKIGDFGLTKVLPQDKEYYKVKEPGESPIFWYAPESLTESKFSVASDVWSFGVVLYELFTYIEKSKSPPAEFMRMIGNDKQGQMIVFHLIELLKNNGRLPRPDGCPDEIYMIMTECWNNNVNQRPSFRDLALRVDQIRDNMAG
T2 sequence (Q9UM73 19-1620): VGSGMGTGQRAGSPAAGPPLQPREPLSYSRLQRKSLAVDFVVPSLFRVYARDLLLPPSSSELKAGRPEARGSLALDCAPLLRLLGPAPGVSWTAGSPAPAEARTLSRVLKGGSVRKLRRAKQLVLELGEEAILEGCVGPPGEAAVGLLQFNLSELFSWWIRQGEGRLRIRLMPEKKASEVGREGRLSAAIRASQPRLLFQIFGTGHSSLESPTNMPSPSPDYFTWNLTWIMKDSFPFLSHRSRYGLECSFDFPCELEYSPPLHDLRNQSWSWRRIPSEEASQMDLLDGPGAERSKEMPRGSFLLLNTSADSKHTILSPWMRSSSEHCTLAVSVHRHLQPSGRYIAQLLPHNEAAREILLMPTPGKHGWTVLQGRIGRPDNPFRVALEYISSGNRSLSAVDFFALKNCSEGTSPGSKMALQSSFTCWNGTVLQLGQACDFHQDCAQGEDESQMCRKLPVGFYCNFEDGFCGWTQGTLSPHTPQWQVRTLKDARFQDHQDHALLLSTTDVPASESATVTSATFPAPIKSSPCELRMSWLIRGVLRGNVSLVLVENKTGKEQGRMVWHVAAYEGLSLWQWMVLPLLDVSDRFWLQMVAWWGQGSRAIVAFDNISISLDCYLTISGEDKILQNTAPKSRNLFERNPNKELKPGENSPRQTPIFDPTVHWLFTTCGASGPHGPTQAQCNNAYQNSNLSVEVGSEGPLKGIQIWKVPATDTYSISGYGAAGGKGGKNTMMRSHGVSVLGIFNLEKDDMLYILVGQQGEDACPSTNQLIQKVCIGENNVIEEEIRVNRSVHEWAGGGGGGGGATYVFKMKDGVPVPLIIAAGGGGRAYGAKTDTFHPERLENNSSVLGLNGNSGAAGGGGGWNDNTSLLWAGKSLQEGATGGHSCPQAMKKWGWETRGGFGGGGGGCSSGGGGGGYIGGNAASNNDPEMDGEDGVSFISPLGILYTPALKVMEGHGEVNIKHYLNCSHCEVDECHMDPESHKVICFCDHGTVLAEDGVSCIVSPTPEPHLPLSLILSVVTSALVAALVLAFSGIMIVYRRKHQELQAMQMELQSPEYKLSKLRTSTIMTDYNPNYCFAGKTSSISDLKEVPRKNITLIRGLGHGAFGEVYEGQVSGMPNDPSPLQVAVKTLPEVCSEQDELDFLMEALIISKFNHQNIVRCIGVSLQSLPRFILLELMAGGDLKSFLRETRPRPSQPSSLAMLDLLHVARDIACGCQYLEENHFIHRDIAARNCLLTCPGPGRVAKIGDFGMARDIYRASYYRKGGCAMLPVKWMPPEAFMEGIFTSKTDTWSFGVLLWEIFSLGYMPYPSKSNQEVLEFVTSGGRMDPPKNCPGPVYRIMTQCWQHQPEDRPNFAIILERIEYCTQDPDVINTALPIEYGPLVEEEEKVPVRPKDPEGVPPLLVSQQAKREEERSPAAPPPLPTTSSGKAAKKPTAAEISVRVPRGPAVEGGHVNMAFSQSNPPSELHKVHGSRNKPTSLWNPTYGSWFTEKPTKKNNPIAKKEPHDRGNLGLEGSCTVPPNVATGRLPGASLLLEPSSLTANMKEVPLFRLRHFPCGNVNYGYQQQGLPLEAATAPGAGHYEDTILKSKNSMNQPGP

| IC50 (JAK2; JAK2 Kinase Inhibition) [nM] | IC50 (ALK; ALK Kinase Inhibition) [nM] | IC50 (JAK2; [1]) [nM] | IC50 (ALK; [2]) [nM] | Compound |
| --- | --- | --- | --- | --- |
| < 100 | < 100 |  |  | COc1cc(N2CCN(C)CC2)ccc1Nc1ncc2ccc(-c3ccccc3OC)n2n1 [Example 33, [2-Methoxy-4-(4-methyl-piperazin-1-yl)-phenyl]-[7-(2-methoxy-phenyl)-pyrrolo[2,1-f][1,2,4]triazin-2-yl]-amine] |
| 1000 to 10000 | > 10000 |  |  | CN1CCN(c2ccc(Nc3ncc4ccc(-c5ccccc5NC(=O)C(C)(C)C)n4n3)cc2)CC1 [Example 403, 2,2-Dimethyl-N-(2-{2-[4-(4-methyl-piperazin-1-yl)-phenylamino]-pyrrolo[2,1-f][1,2,4]triazin-7-yl}-phenyl)-propionamide] |
| 100 to 1000 | < 100 |  |  | COc1cc(N2CCC[C@H](CN3CCN(C)CC3)C2)ccc1Nc1ncc2ccc(-c3ccccc3OC)n2n1 [Example 466, {2-Methoxy-4-[(R)-3-(4-methyl-piperazin-1-ylmethyl)-piperidin-1-yl]-phenyl}-[7-(2-methoxy-phenyl)-pyrrolo[2,1-f][1,2,4]triazin-2-yl]-amine] |
| < 100 | 1000 to 10000 |  |  | CN(c1ncccc1Nc1ccc2cnc(Nc3ccc(N4CCOCC4)cc3)nn12)S(C)(=O)=O [Example 385, N-Methyl-N-{3-[2-(4-morpholin-4-yl-phenylamino)-pyrrolo[2,1-f][1,2,4]triazin-7-ylamino]-pyridin-2-yl}-methanesulfonamide] |
| 1000 to 10000 | 1000 to 10000 |  |  | COc1ccc2c(c1)cc1cnc(Nc3ccc(N4CCOCC4)cc3OC)nn12 [Example 269, (2-Methoxy-4-morpholin-4-yl-phenyl)-(7-methoxy-[1,2,4]triazino[1,6-a]indol-2-yl)-amine] |
| < 100 | < 100 |  |  | COc1ccccc1-c1ccc2cnc(Nc3ccc(OCCN4CCCC4)cc3)nn12 [Example 121, [7-(2-Methoxy-phenyl)-pyrrolo[2,1-f][1,2,4]triazin-2-yl]-[4-(2-pyrrolidin-1-yl-ethoxy)-phenyl]-amine] |
|  |  | < 100 | < 100 | CN1CCc2cc(Nc3ncc4ccc(-c5cccc(S(=O)(=O)NC(C)(C)C)c5)n4n3)ccc2C1 [Example 921, N-tert-Butyl-3-[2-(2-methyl-1,2,3,4-tetrahydro-isoquinolin-6-ylamino)-pyrrolo[2,1-f][1,2,4]triazin-7-yl]-benzenesulfonamide] |
|  |  | 100 to 1000 | < 100 | COc1cc(C2CCN(CC(N)=O)CC2)ccc1Nc1ncc2ccc(-c3cccc(S(=O)(=O)NC(C)(C)C)c3)n2n1 [Example 693, 2-(4-{4-[7-(3-tert-Butylsulfamoylphenyl)pyrrolo[2,1-f][1,2,4]triazin-2-ylamino]-3-methoxyphenyl)piperidin-1-yl)-acetamide] |
| < 100 | 100 to 1000 |  |  | COc1ccccc1Sc1ccc2cnc(Nc3ccc(N4CCN(C)CC4)cc3)nn12 [Example 98, [7-(2-Methoxy-phenylsulfanyl)-pyrrolo[2,1-f][1,2,4]triazin-2-yl]-[4-(4-methyl-piperazin-1-yl)-phenyl]-amine] |
|  |  | < 100 | 100 to 1000 | CC(C)(C)NS(=O)(=O)c1cccc(-c2ccc3cnc(Nc4ccc5c(c4)ncn5CCN4CCOCC4)nn23)c1 [Example 1325, N-tert-Butyl-3-{2-[1-(2-morpholin-4-yl-ethyl)-1H-benzimidazol-5-ylamino]-pyrrolo[2,1-f][1,2,4]triazin-7-yl}-benzenesulfonamide] |
|  |  | < 100 | < 100 | CN1CCC(c2ccc(Nc3ncc4ccc(-c5cccc(Cl)c5)n4n3)cc2)CC1 [Example 1131, [7-(3-Chloro-phenyl)-pyrrolo[2,1-f][1,2,4]triazin-2-yl]-[4-(1-methyl-piperidin-4-yl)-phenyl]-amine] |
| < 100 | 100 to 1000 |  |  | CC(=O)Nc1cc(Nc2ncc3ccc(-c4cccc(S(=O)(=O)NC(C)(C)C)c4)n3n2)ccc1C [Example 1398, N-{5-[7-(3-tert-Butylsulfamoyl-phenyl)-pyrrolo[2,1-f][1,2,4]triazin-2-ylamino]-2-methyl-phenyl}-acetamide] |
|  |  | < 100 | < 100 | COc1cc(N2CCC(N(C)C)CC2)ccc1Nc1ncc2ccc(-c3ccc(S(C)(=O)=O)cc3)n2n1 [Example 477, [4-(4-Dimethylamino-piperidin-1-yl)-2-methoxy-phenyl]-[7-(4-methanesulfonyl-phenyl)-pyrrolo[2,1-f][1,2,4]triazin-2-yl]-amine] |
|  |  | < 100 | < 100 | N#Cc1ccccc1-c1ccc2cnc(Nc3ccc(C4CCN(CC(N)=O)CC4)cc3)nn12 [Example 513, 2-(4-{4-[7-(2-Cyano-phenyl)-pyrrolo[2,1-f][1,2,4]triazin-2-ylamino]-phenyl}-piperidin-1-yl)-acetamide] |
| 100 to 1000 | < 100 |  |  | COc1cc(N2CCC(C(=O)N3CCN(C)CC3)CC2)ccc1Nc1ncc2ccc(-c3ccccc3OC)n2n1 [Example 458, (1-{3-Methoxy-4-[7-(2-methoxy-phenyl)-pyrrolo[2,1-f][1,2,4]triazin-2-ylamino]-phenyl}-piperidin-4-yl)-(4-methyl-piperazin-1-yl)-methanone] |
| < 100 | 100 to 1000 |  |  | CN1CCN(c2ccc(Nc3ncc4ccc(-c5ccccc5OCC(=O)N(C)C)n4n3)cc2)CC1 [Example 1403, N,N-Dimethyl-2-(2-{2-[4-(4-methyl-piperazin-1-yl)-phenylamino]-pyrrolo[2,1-f][1,2,4]triazin-7-yl}-phenoxy)-acetamide] |
| 1000 to 10000 | 1000 to 10000 |  |  | COc1ccccc1-c1ccc2cnc(-c3nc4cc(N5CCN(C)CC5)ccc4[nH]3)nn12 [Example 1505, 7-(2-Methoxy-phenyl)-2-[5-(4-methyl-piperazin-1-yl)-1H-benzimidazol-2-yl]-pyrrolo[2,1-f][1,2,4]triazine] |
|  |  | < 100 | 100 to 1000 | CC(C)(C)NS(=O)(=O)c1cccc(-c2ccc3cnc(Nc4ccc5c(cnn5CCN5CCOCC5)c4)nn23)c1 [Example 1323, N-tert-Butyl-3-{2-[1-(2-morpholin-4-yl-ethyl)-1H-indazol-5-ylamino]-pyrrolo[2,1-f][1,2,4]triazin-7-yl}-benzenesulfonamide] |
|  |  | 1000 to 10000 | < 100 | COc1cc(N2CCC(N3CCCC3)CC2)ccc1Nc1ncc2ccc(-c3ccccc3N(C)S(C)(=O)=O)n2n1 [Example 480, N-(2-{2-[2-Methoxy-4-(4-pyrrolidin-1-yl-piperidin-1-yl)-phenylamino]-pyrrolo[2,1-f][1,2,4]triazin-7-yl}-phenyl)-N-methyl-methanesulfonamide] |
|  |  | < 100 | 1000 to 10000 | COc1ccccc1-c1ccc2cnc(Nc3cc4c(cc3F)CCC(=O)N4)nn12 [Example 922, 6-Fluoro-7-[7-(2-methoxy-phenyl)-pyrrolo[2,1-f][1,2,4]triazin-2-ylamino]-3,4-dihydro-1H-quinolin-2-one] |
|  |  | < 100 | 100 to 1000 | COc1ccccc1-c1ccc2cnc(Nc3cccc(OCCN4CCOCC4)c3)nn12 [Example 1003, [7-(2-Methoxy-phenyl)-pyrrolo[2,1-f][1,2,4]triazin-2-yl]-[3-(2-morpholin-4-yl-ethoxy)-phenyl]-amine] |
| < 100 | 100 to 1000 |  |  | CN1CCN(CC2CCCN(c3ccc(Nc4ncc5ccc(-c6ccc(S(C)(=O)=O)cc6)n5n4)cc3)C2)CC1 (centres unmarked) [Example 457, [7-(4-Methanesulfonyl-phenyl)-pyrrolo[2,1-f][1,2,4]triazin-2-yl]-{4-[3-(4-methyl-piperazin-1-ylmethyl)-piperidin-1-yl]-phenyl}-amine] |
|  |  | < 100 | 100 to 1000 | COc1ccc(-c2ccc3cnc(Nc4ccc(C5CCN(C)CC5)cc4)nn23)cn1 [Example 1180, [7-(6-Methoxy-pyridin-3-yl)-pyrrolo[2,1-f][1,2,4]triazin-2-yl]-[4-(1-methyl-piperidin-4-yl)-phenyl]-amine] |
| 100 to 1000 | > 10000 |  |  | c1ccc(Nc2ncc3cc4ccccc4n3n2)cc1 [Example 270, Phenyl-[1,2,4]triazino[1,6-a]indol-2-yl-amine] |
|  |  | < 100 | 1000 to 10000 | CN(c1ccccc1-c1ccc2cnc(Nc3ccc(N4CCOCC4)cn3)nn12)S(C)(=O)=O [Example 1176, N-Methyl-N-{2-[2-(5-morpholin-4-yl-pyridin-2-ylamino)-pyrrolo[2,1-f][1,2,4]triazin-7-yl]-phenyl}-methanesulfonamide] |
| < 100 | 100 to 1000 |  |  | COc1ccc(Nc2ncc3ccc(-c4ccccc4N(C)S(C)(=O)=O)n3n2)cc1N1CCCC1=O [Example 1370, N-(2-{2-[4-Methoxy-3-(2-oxo-pyrrolidin-1-yl)-phenylamino]-pyrrolo[2,1-f][1,2,4]triazin-7-yl}-phenyl)-N-methyl-methanesulfonamide] |
| < 100 | 100 to 1000 |  |  | CN1CCN(C(=O)C2CCN(c3ccc(Nc4ncc5ccc(-c6ccc(S(C)(=O)=O)cc6)n5n4)cc3)CC2)CC1 [Example 445, (1-{4-[7-(4-Methanesulfonyl-phenyl)-pyrrolo[2,1-f][1,2,4]triazin-2-ylamino]-phenyl}-piperidin-4-yl)-(4-methyl-piperazin-1-yl)-methanone] |
| < 100 | > 10000 |  |  | CC(C)(C)C(=O)Nc1ccccc1-c1ccc2cnc(Nc3ccc(N4CCOCC4)cc3)nn12 [Example 401, 2,2-Dimethyl-N-{2-[2-(4-morpholin-4-yl-phenylamino)-pyrrolo[2,1-f][1,2,4]triazin-7-yl]-phenyl}-propionamide] |
